Consider 19 molecules from patent US20240343733A1, “COMPOUNDS FOR TARGETING DEGRADATION OF IRAK4 PROTEINS” (BIOGEN MA INC., priority 2021, published 2024).

The assay addresses T1, IRAK4 (Homo sapiens, UniProt Q9NWZ3).
T1 construct: 293Tcells expressing HiBiT-tagged IRAK4 were then added into 384-well plates
T1 sequence (Q9NWZ3 1-460): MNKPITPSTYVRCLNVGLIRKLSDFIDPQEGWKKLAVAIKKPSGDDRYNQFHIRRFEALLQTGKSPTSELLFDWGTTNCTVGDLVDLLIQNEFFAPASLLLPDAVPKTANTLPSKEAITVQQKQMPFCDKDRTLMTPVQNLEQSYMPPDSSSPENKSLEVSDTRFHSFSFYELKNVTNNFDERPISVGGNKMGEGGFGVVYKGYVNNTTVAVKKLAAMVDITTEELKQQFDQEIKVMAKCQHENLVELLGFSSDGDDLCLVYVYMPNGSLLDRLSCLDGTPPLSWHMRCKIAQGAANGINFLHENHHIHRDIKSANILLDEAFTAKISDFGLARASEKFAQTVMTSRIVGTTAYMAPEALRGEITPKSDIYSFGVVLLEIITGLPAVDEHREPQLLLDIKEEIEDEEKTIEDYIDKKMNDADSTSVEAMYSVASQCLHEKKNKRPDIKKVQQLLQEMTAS
As to the kind of experiment: IRAK4 Degradation Assay, HiBiT Method. The assay is classed as cell-based. To be noted: 293T cells expressing HiBiT-tagged IRAK4, 6 hours. The gist of the method:
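293T cells with HiBiT knocked in at the C-terminus of endogenous IRAK4, 10,000 per well, treated 6 h at 37 °C with an 11-point half-log series ([…]), in duplicate. Remaining IRAK4 read by Nano-Glo HiBiT lytic luminescence against DMSO-only and media-only controls.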
As a reminder, the DC50 is the concentration at which degradation of the target reaches its halfway point. `CC(C)Oc1cc2nc([C@H]3CC[C@H](CN4CCC(c5ccc6c(c5)n(C)c(=O)n6C5CCC(=O)NC5=O)C(F)(F)C4)CC3)cn2cc1C(=O)Nc1cccc(C(F)F)n1` (stereo partly shown) [Example 29, N-[6-(difluoromethyl)-2-pyridyl]-2-[4-[[4-[1-(2,6-dioxo-3-piperidyl)-3-methyl-2-oxo-benzimidazol-5-yl]-3,3-difluoro-1-piperidyl]methyl]cyclohexyl]-7-isopropoxy-imidazo[1,2-a]pyridine-6-carboxamide] displayed a DC50 of 0.01 to 0.1 µM.
Then `CC(C)Oc1cc2nc(C3CCN(C(=O)CN4CCC(c5ccc(NC6CCC(=O)NC6=O)cn5)CC4)CC3)cn2cc1C(=O)Nc1cccc(C(F)F)n1` (stereo not shown) [Example 84, N-[6-(difluoromethyl)-2-pyridyl]-2-[1-[2-[4-[5-[(2,6-dioxo-3-piperidyl)amino]-2-pyridyl]-1-piperidyl]acetyl]-4-piperidyl]-7-isopropoxy-imidazo[1,2-a]pyridine-6-carboxamide], with 0.01 to 0.1 µM; and `CC(C)Oc1cc2nn(C3CCN(C(=O)CC4CCN(c5ncc6c(n5)n(C)c(=O)n6C5CCC(=O)NC5=O)CC4)CC3)cc2cc1C(=O)Nc1cccn([C@H]2C[C@H]2F)c1=O` (stereo partly drawn) [Example 150, 2-(1-(2-(1-(7-(2,6-dioxopiperidin-3-yl)-9-methyl-8-oxo-8,9-dihydro-7H-purin-2-yl)piperidin-4-yl)acetyl)piperidin-4-yl)-N-(1-((1S,2R)-2-fluorocyclopropyl)-2-oxo-1,2-dihydropyridin-3-yl)-6-isopropoxy-2H-indazole-5-carboxamide], with below 0.01 µM; and `CC(C)Oc1cc2nn(C3CCN(C(=O)OC4CCN(c5ncc(C6CCC(=O)NC6=O)cc5F)CC4)CC3)cc2cc1C(=O)Nc1cccn([C@H]2C[C@H]2F)c1=O` (stereo partly drawn) [Example 156, 1-(5-(2,6-dioxopiperidin-3-yl)-3-fluoropyridin-2-yl)piperidin-4-yl 4-(5-((1-((1S,2R)-2-fluorocyclopropyl)-2-oxo-1,2-dihydropyridin-3-yl)carbamoyl)-6-isopropoxy-2H-indazol-2-yl)piperidine-1-carboxylate], with 0.01 to 0.1 µM.
To `CC(C)Oc1cc2nc([C@H]3CC[C@H](CN4CCC(c5ccc(NC6CCC(=O)NC6=O)cc5)CC4)CC3)cn2cc1C(=O)Nc1cccc(C(F)F)n1` (stereo partly shown) [Example 16, N-[6-(difluoromethyl)-2-pyridyl]-2-[4-[[4-[4-[(2,6-dioxo-3-piperidyl)amino]phenyl]-1-piperidyl]methyl]cyclohexyl]-7-isopropoxy-imidazo[1,2-a]pyridine-6-carboxamide] belongs 0.01 to 0.1 µM; to `CC(C)Oc1cc2nc(C3CCN(CC(=O)N4CCC(c5ccc(NC6CCC(=O)NC6=O)cc5)CC4)CC3)cn2cc1C(=O)Nc1cccc(C(F)(F)F)n1` (stereo not shown) [Example 103, 2-(1-(2-(4-(4-((2,6-dioxopiperidin-3-yl)amino)phenyl)piperidin-1-yl)-2-oxoethyl)piperidin-4-yl)-7-isopropoxy-N-(6-(trifluoromethyl)pyridin-2-yl)imidazo[1,2-a]pyridine-6-carboxamide], 0.01 to 0.1 µM; to `CC(C)Oc1cc2nn([C@H]3CC[C@H](CN4CCN(c5ccn6c(N7CCC(=O)NC7=O)cnc6c5)CC4)CC3)cc2cc1C(=O)Nc1cccn([C@H]2C[C@H]2F)c1=O` [Example 146, 2-((1r,4S)-4-((4-(3-(2,4-dioxotetrahydropyrimidin-1(2H)-yl)imidazo[1,2-a]pyridin-7-yl)piperazin-1-yl)methyl)cyclohexyl)-N-(1-((1S,2R)-2-fluorocyclopropyl)-2-oxo-1,2-dihydropyridin-3-yl)-6-isopropoxy-2H-indazole-5-carboxamide], below 0.01 µM.
With `CC(C)Oc1cc2nn([C@H]3CC[C@H](CN4CCN(c5ncc(C6CCC(=O)NC6=O)cc5F)CC(O)C4)CC3)cc2cc1C(=O)Nc1cccn([C@H]2C[C@H]2F)c1=O` (stereo partly drawn) [Example 119, 2-((1r,4S)-4-((4-(5-(2,6-dioxopiperidin-3-yl)-3-fluoropyridin-2-yl)-6-hydroxy-1,4-diazepan-1-yl)methyl)cyclohexyl)-N-(1-((1S,2R)-2-fluorocyclopropyl)-2-oxo-1,2-dihydropyridin-3-yl)-6-isopropoxy-2H-indazole-5-carboxamide], the DC50 is below 0.01 µM.
Then `Cc1cnc2c(NC(=O)c3cn4cc([C@H]5CC[C@H](CN6CCC(c7ccc8c(c7)n(C)c(=O)n8C7CCC(=O)NC7=O)CC6)CC5)nc4cc3OC(C)C)cnn2c1` (stereo partly shown) [Example 51, 2-[4-[[4-[1-(2,6-dioxo-3-piperidyl)-3-methyl-2-oxo-benzimidazol-5-yl]-1-piperidyl]methyl]cyclohexyl]-7-isopropoxy-N-(6-methylpyrazolo[1,5-a]pyrimidin-3-yl)imidazo[1,2-a]pyridine-6-carboxamide], with below 0.01 µM; and `CC(C)Oc1cc2nn(C3CCN(C(=O)CC4CCN(c5ncc(C6CCC(=O)NC6=O)cc5F)CC4)CC3)cc2cc1C(=O)Nc1cnn2cccnc12` (stereo not shown) [Example 148, 2-(1-(2-(1-(5-(2,6-dioxopiperidin-3-yl)-3-fluoropyridin-2-yl)piperidin-4-yl)acetyl)piperidin-4-yl)-6-isopropoxy-N-(pyrazolo[1,5-a]pyrimidin-3-yl)-2H-indazole-5-carboxamide], with 0.01 to 0.1 µM.
To `CC(C)Oc1cc2nc([C@H]3CC[C@H](CN(C)C4CCN(Cc5ccc(NC6CCC(=O)NC6=O)cc5)CC4)CC3)cn2cc1C(=O)Nc1cccc(C(F)F)n1` (stereo partly shown) [Example 32, N-[6-(difluoromethyl)-2-pyridyl]-2-[4-[[[1-[[4-[(2,6-dioxo-3-piperidyl)amino]phenyl]methyl]-4-piperidyl]-methyl-amino]methyl]cyclohexyl]-7-isopropoxy-imidazo[1,2-a]pyridine-6-carboxamide] belongs 0.1 to 0.5 µM; to `CC(C)Oc1cc2nc([C@H]3CC[C@H](CN(C)C4CCN(c5ccc(C6CCC(=O)NC6=O)cc5)CC4(F)F)CC3)cn2cc1C(=O)Nc1cccc(C(F)F)n1` (stereo partly shown) [Example 42, N-[6-(difluoromethyl)-2-pyridyl]-2-[4-[[[1-[4-(2,6-dioxo-3-piperidyl)phenyl]-3,3-difluoro-4-piperidyl]-methyl-amino]methyl]cyclohexyl]-7-isopropoxy-imidazo[1,2-a]pyridine-6-carboxamide], 0.1 to 0.5 µM.
To `CC(C)Oc1cc2nc([C@H]3CC[C@H](CNCC4(O)CCN(c5ncc(C6CCC(=O)NC6=O)cc5F)CC4)CC3)cn2cc1C(=O)Nc1cnn2cccnc12` (stereo partly shown) [Example 176] belongs below 0.01 µM.
As to `CC(C)Oc1cc2nc(C3CCN(C(=O)CN4CCC(c5cc(F)c(C6CCC(=O)NC6=O)cc5F)CC4)CC3)cn2cc1C(=O)Nc1cccc(C(F)F)n1` (stereo not shown) [Example 76, N-[6-(difluoromethyl)-2-pyridyl]-2-[1-[2-[4-[4-(2,6-dioxo-3-piperidyl)-2,5-difluoro-phenyl]-1-piperidyl]acetyl]-4-piperidyl]-7-isopropoxy-imidazo[1,2-a]pyridine-6-carboxamide], the DC50 lay within 0.01 to 0.1 µM.
`CC(C)Oc1cc2nc(C3CCN(C(=O)CC4CCN(c5ccc(C6CCC(=O)NC6=O)cn5)CC4)CC3)cn2cc1C(=O)Nc1cccn([C@H]2C[C@H]2F)c1=O` (stereo partly drawn) [Example 160, 2-(1-(2-(1-(5-(2,6-dioxopiperidin-3-yl)pyridin-2-yl)piperidin-4-yl)acetyl)piperidin-4-yl)-N-(1-((1S,2R)-2-fluorocyclopropyl)-2-oxo-1,2-dihydropyridin-3-yl)-7-isopropoxyimidazo[1,2-a]pyridine-6-carboxamide] came in with a DC50 below 0.01 µM.
To `CC(C)Oc1cc2nc([C@H]3CC[C@H](CN(C)C4CCN(c5cccc(C6CCC(=O)NC6=O)c5)CC4)CC3)cn2cc1C(=O)Nc1cccc(C(F)(F)F)n1` (stereo partly shown) [Example 11, 2-[4-[[[1-[3-(2,6-dioxo-3-piperidyl)phenyl]-4-piperidyl]-methyl-amino]methyl]cyclohexyl]-7-isopropoxy-N-[6-(trifluoromethyl)-2-pyridyl]imidazo[1,2-a]pyridine-6-carboxamide] belongs 0.01 to 0.1 µM.
On to `CC(C)Oc1cc2nc(C3CCN(C(=O)CC4CC5(C4)CN(c4ccc(C6CCC(=O)NC6=O)cn4)C5)CC3)cn2cc1C(=O)Nc1cccn([C@H]2C[C@H]2F)c1=O` (stereo partly drawn) [Example 183, 2-(1-(2-(2-(5-(2,6-dioxopiperidin-3-yl)pyridin-2-yl)-2-azaspiro[3.3]heptan-6-yl)acetyl)piperidin-4-yl)-N-(1-((1S,2R)-2-fluorocyclopropyl)-2-oxo-1,2-dihydropyridin-3-yl)-7-isopropoxyimidazo[1,2-a]pyridine-6-carboxamide], for which the DC50 is below 0.01 µM.
To `CC(C)Oc1cc2nc([C@H]3CC[C@H](CN4CCC(c5ccc(CN6CCC(=O)NC6=O)cc5)CC4)CC3)cn2cc1C(=O)Nc1cccc(C(F)F)n1` [Example 37, N-[6-(difluoromethyl)-2-pyridyl]-2-[4-[[4-[4-[(2,4-dioxohexahydropyrimidin-1-yl)methyl]phenyl]-1-piperidyl]methyl]cyclohexyl]-7-isopropoxy-imidazo[1,2-a]pyridine-6-carboxamide] belongs 0.01 to 0.1 µM; to `CC(C)Oc1cc2nc(C3CCN(C(=O)CN4CCC(c5ccc(NC6CCC(=O)NC6=O)nc5)CC4)CC3)cn2cc1C(=O)Nc1cccc(C(F)F)n1` (stereo not shown) [Example 86, N-[6-(difluoromethyl)-2-pyridyl]-2-[1-[2-[4-[6-[(2,6-dioxo-3-piperidyl)amino]-3-pyridyl]-1-piperidyl]acetyl]-4-piperidyl]-7-isopropoxy-imidazo[1,2-a]pyridine-6-carboxamide], 0.01 to 0.1 µM.
